Data on 38 compounds can be found in patent publication US8586505B2 (SDS Biotech K. K., priority 2009, dated 2013).

Assay type in all cases: in vivo
In experiment [1] the test system is Phytophthora infestans. The experiment is described as follows: whole plant or invertebrate. The conditions noted are these: in Solanum lycopersicum, 96 h, read-out: Determination of control effect (preventive value).
Experiment [2] concerns Pseudoperonospora cubensis. The experiment is described as follows: Test of examining control effect on Pseudoperonospora cubensis (potted cucumber plants). Conditions: 96 h, 10% wettable powder adjusted to 125 ppm, 15 ml/pot sprayed on potted cucumber plants one day before spray inoculation, assessed after 1 day wet chamber and 3 days greenhouse, read-out: Determination of control effect (preventive value) on Pseudoperonospora cubensis. Here is the method:
(§1) Calculation of Preventive Value: Preventive value={(untreated lesion area rate−treated lesion area rate)/untreated lesion area rate}×100
(§2) Using the thus calculated preventive value, the control effect of each compound was determined in accordance with the following standards.
(§3) High control effect: 100%≧preventive value≧60%
(§4) Low control effect: 60%>preventive value≧0%
Using a spray gun, an agent solution prepared by adjusting a 10% wettable powder of each sample compound to 125 ppm (hereinafter referred to as a “sample agent solution”) was sprayed to potted cucumber plants (variety: Sagamihanjiro, 2.5 leave stage) in a concentration of 15 ml/pot. One day after the spraying, a conidial suspension of Pseudoperonospora cubensis (conidial concentration: 1.0×10^4 cells/ml) was applied to the plants by spray inoculation. After completion of the inoculation, the plants were left at 21° C. under wet chamber conditions for 1 day, and were then left in a greenhouse for 3 days, so that they were fully infected with the aforementioned disease. Thereafter, the disease level on each leaf was compared with that on an untreated leaf, and the control effect of each compound was determined in the same manner as in Example 3(1).

Experiment [3] has as its system Sphaerotheca fuliginea. The experiment is described as follows: Test of examining control effect on Sphaerotheca fuliginea (potted cucumber plants). Conditions: Podosphaera fuliginea, 336 h; 10% wettable powder adjusted to 125 ppm, 15 ml/pot sprayed on potted cucumber plants one day before spray inoculation; assessed after 14 days in greenhouse; read-out: Determination of control effect (preventive value) on Sphaerotheca fuliginea. Here is the method:
as §1, §2, §3, §4
Using a spray gun, an agent solution prepared by adjusting a 10% wettable powder of each sample compound to 125 ppm (hereinafter referred to as a “sample agent solution”) was sprayed to potted cucumber plants (variety: Sagamihanjiro, 2nd leave stage) in a concentration of 15 ml/pot. One day after the spraying, a conidial suspension of Sphaerotheca fuliginea (conidial concentration: 1.0×10^5 cells/ml) was applied to the plants by spray inoculation. The plants were left in a greenhouse for 14 days, so that they were fully infected with the aforementioned disease. Thereafter, the disease level on each leaf was compared with that on an untreated leaf, and the control effect of each compound was determined in the same manner as in Example 3(1).

SMILES strings stand for the structures.

With `CN(c1ccc(C#CCCNc2ncnc3ccccc23)cc1)S(C)(=O)=O` [compound 124], the pest or weed control at 125 ppm in experiment [1] fell in the range of 0 to 60%. Moreover, the pest or weed control at 125 µg/mL in experiment [2] fell in the range of 60 to 100%; in experiment [3], 0 to 60%.
With `COC(=O)N(OC)c1ccccc1C#CCCNc1ncnc2ccccc12` [compound 125], the pest or weed control at 125 ppm in experiment [1] fell in the range of 60 to 100%. The values for the pest or weed control at 125 µg/mL in experiment [2] and in experiment [3] were 60 to 100% and 0 to 60%, respectively.
In the case of `CNC(=O)c1ccc(C#CCCNc2ncnc3ccccc23)cc1` [compound 126], the pest or weed control at 125 ppm in experiment [1] lay within 60 to 100%. Further, the values for the pest or weed control at 125 µg/mL in experiment [2] and in experiment [3] were 60 to 100% and 0 to 60%, respectively.
Take `O=C(O)c1ccc(C#CCCNc2ncnc3ccccc23)cc1` [compound 127]: in experiment [1], the pest or weed control at 125 ppm lay in the range of 60 to 100%. Moreover, the pest or weed control at 125 µg/mL in experiment [2] and in experiment [3] was 60 to 100% each time.
With `CC(=O)c1ccc(C#CCCNc2ncnc3ccccc23)cc1` [compound 128], the pest or weed control at 125 ppm in experiment [1] lay within 60 to 100%. In addition, the pest or weed control at 125 µg/mL in experiment [2] and in experiment [3] was 60 to 100% each time.
Consider `OCc1ccccc1C#CCCNc1ncnc2ccccc12` [compound 130], for which the pest or weed control at 125 ppm in experiment [1] lay in the range of 60 to 100%. Moreover, the pest or weed control at 125 µg/mL in experiment [2] and in experiment [3] was 60 to 100% each time.
As to `COCc1ccccc1C#CCCNc1ncnc2ccccc12` [compound 133], the pest or weed control at 125 ppm in experiment [1] lay within 60 to 100%. The pest or weed control at 125 µg/mL in experiment [2] and in experiment [3] was 60 to 100% each time.
In the case of `FC(F)OCc1ccccc1C#CCCNc1ncnc2ccccc12` [compound 134], the pest or weed control at 125 ppm in experiment [1] was 60 to 100%. Also, the pest or weed control at 125 µg/mL in experiment [2] and in experiment [3] was 60 to 100% each time.
Regarding `COCc1cccc(C#CCCNc2ncnc3ccccc23)c1` [compound 135], the pest or weed control at 125 ppm in experiment [1] was in the range of 0 to 60%. Further, the values for the pest or weed control at 125 µg/mL in experiment [2] and in experiment [3] were 60 to 100% and 0 to 60%, respectively.
For `COCc1ccc(C#CCCNc2ncnc3ccccc23)cc1` [compound 136], the pest or weed control at 125 ppm in experiment [1] was in the range of 0 to 60%. For the same compound, the pest or weed control at 125 µg/mL in experiment [2] and in experiment [3] was 60 to 100% throughout.
For `COC(C)c1ccccc1C#CCCNc1ncnc2ccccc12` (stereo not drawn) [compound 137], in experiment [1], the pest or weed control at 125 ppm fell in the range of 0 to 60%. Also, the pest or weed control at 125 µg/mL in experiment [2] and in experiment [3] was 60 to 100% in each case.
Take `COCc1cc(F)ccc1C#CCCNc1ncnc2ccccc12` [compound 139]: in experiment [1], the pest or weed control at 125 ppm lay within 60 to 100%. The pest or weed control at 125 µg/mL in experiment [2] and in experiment [3] was 60 to 100% each time.
Turning to `COCc1cc(Cl)ccc1C#CCCNc1ncnc2ccccc12` [compound 140], the pest or weed control at 125 ppm in experiment [1] lay in the range of 60 to 100%. Further, the pest or weed control at 125 µg/mL in experiment [2] and in experiment [3] was 60 to 100% throughout.
`COCc1cccc(F)c1C#CCCNc1ncnc2ccccc12` [compound 141]: the pest or weed control at 125 ppm in experiment [1] is 60 to 100%. Further, the pest or weed control at 125 µg/mL in experiment [2] and in experiment [3] was 60 to 100% in each case.
In the case of `COCc1ccc(F)cc1C#CCCNc1ncnc2ccccc12` [compound 142], the pest or weed control at 125 ppm in experiment [1] lay within 60 to 100%. Further, the pest or weed control at 125 µg/mL in experiment [2] and in experiment [3] was 60 to 100% each time.
As for `COCc1ccc(Cl)cc1C#CCCNc1ncnc2ccccc12` [compound 143], the pest or weed control at 125 ppm in experiment [1] is 60 to 100%. Also, the pest or weed control at 125 µg/mL in experiment [2] and in experiment [3] was 60 to 100% in each case.
As for `COCc1ccc(C)cc1C#CCCNc1ncnc2ccccc12` [compound 144], the pest or weed control at 125 ppm in experiment [1] was in the range of 60 to 100%. Besides, the pest or weed control at 125 µg/mL in experiment [2] and in experiment [3] was 60 to 100% each time.
As to `COCc1cc(C)ccc1C#CCCNc1ncnc2ccccc12` [compound 145], the pest or weed control at 125 ppm in experiment [1] lay in the range of 60 to 100%. Also, the pest or weed control at 125 µg/mL in experiment [2] and in experiment [3] was 60 to 100% in each case.
For `N#CCc1ccccc1C#CCCNc1ncnc2ccccc12` [compound 147], in experiment [1], the pest or weed control at 125 ppm was in the range of 60 to 100%. For the same compound, the pest or weed control at 125 µg/mL in experiment [2] and in experiment [3] was 60 to 100% throughout.
As for `COCOCc1ccccc1C#CCCNc1ncnc2ccccc12` [compound 148], the pest or weed control at 125 ppm in experiment [1] is 60 to 100%. Besides, the pest or weed control at 125 µg/mL in experiment [2] and in experiment [3] was 60 to 100% in each case.
As for `COC(OC)c1ccccc1C#CCCNc1ncnc2ccccc12` [compound 149], in experiment [1], the pest or weed control at 125 ppm lay in the range of 0 to 60%. In addition, the pest or weed control at 125 µg/mL in experiment [2] and in experiment [3] was 0 to 60% throughout.
On to `CCOC(OCC)c1ccccc1C#CCCNc1ncnc2ccccc12` [compound 150], for which the pest or weed control at 125 ppm in experiment [1] lay in the range of 0 to 60%. In addition, the pest or weed control at 125 µg/mL in experiment [2] and in experiment [3] was 0 to 60% throughout.
Take `CCOC(OCC)c1ccc(C#CCCNc2ncnc3ccccc23)cc1` [compound 151]: the pest or weed control at 125 ppm in experiment [1] was in the range of 60 to 100%. In addition, the pest or weed control at 125 µg/mL in experiment [2] and in experiment [3] was 60 to 100% throughout.
For the compound `CSCc1ccccc1C#CCCNc1ncnc2ccccc12` [compound 152], the pest or weed control at 125 ppm in experiment [1] lay within 0 to 60%. Besides, the pest or weed control at 125 µg/mL in experiment [2] is 60 to 100%; in experiment [3], 0 to 60%.
As for `CCOCc1ccccc1C#CCCNc1ncnc2ccccc12` [compound 153], the pest or weed control at 125 ppm in experiment [1] was 60 to 100%. For the same compound, the pest or weed control at 125 µg/mL was 60 to 100% in experiment [2] and 0 to 60% in experiment [3].
In the case of `CC(C)OCc1ccccc1C#CCCNc1ncnc2ccccc12` [compound 154], the pest or weed control at 125 ppm in experiment [1] lay in the range of 60 to 100%. Also, the pest or weed control at 125 µg/mL in experiment [2] and in experiment [3] was 60 to 100% throughout.
For the compound `C(#Cc1ccccc1C1OCCO1)CCNc1ncnc2ccccc12` [compound 155], the pest or weed control at 125 ppm in experiment [1] lay in the range of 0 to 60%. In addition, the pest or weed control at 125 µg/mL in experiment [2] was in the range of 60 to 100%; in experiment [3], 0 to 60%.
Turning to `C(#Cc1ccc2c(c1)CCO2)CCNc1ncnc2ccccc12` [compound 157], the pest or weed control at 125 ppm in experiment [1] was 0 to 60%. In addition, the pest or weed control at 125 µg/mL in experiment [2] and in experiment [3] was 60 to 100% in each case.
As to `OCCc1ccccc1C#CCCNc1ncnc2ccccc12` [compound 158], the pest or weed control at 125 ppm in experiment [1] lay in the range of 0 to 60%. Besides, the pest or weed control at 125 µg/mL in experiment [2] and in experiment [3] was 60 to 100% each time.
Consider `CN(C)c1ccc(C#CCCNc2ncnc3ccccc23)cc1` [compound 159], for which the pest or weed control at 125 ppm in experiment [1] is 0 to 60%. Further, the pest or weed control at 125 µg/mL in experiment [2] and in experiment [3] was 60 to 100% throughout.
As to `CN(C)S(=O)(=O)c1ccccc1C#CCCNc1ncnc2ccccc12` [compound 161], the pest or weed control at 125 ppm in experiment [1] was 60 to 100%. In addition, the values for the pest or weed control at 125 µg/mL in experiment [2] and in experiment [3] were 60 to 100% and 0 to 60%, respectively.
With `CS(=O)(=O)Cc1ccccc1C#CCCNc1ncnc2ccccc12` [compound 162], the pest or weed control at 125 ppm in experiment [1] fell in the range of 0 to 60%. For the same compound, the pest or weed control at 125 µg/mL fell in the range of 60 to 100% in experiment [2] and 0 to 60% in experiment [3].
As to `Fc1ccc(F)c(C#CCCNc2ncnc3ccccc23)c1` [compound 163], the pest or weed control at 125 ppm in experiment [1] fell in the range of 60 to 100%. Moreover, the pest or weed control at 125 µg/mL in experiment [2] and in experiment [3] was 60 to 100% throughout.
As to `Cc1ccc(F)cc1C#CCCNc1ncnc2ccccc12` [compound 167], the pest or weed control at 125 ppm in experiment [1] was 0 to 60%. Moreover, the pest or weed control at 125 µg/mL in experiment [2] and in experiment [3] was 60 to 100% in each case.
In the case of `Fc1ccc(C(F)(F)F)c(C#CCCNc2ncnc3ccccc23)c1` [compound 168], in experiment [1], the pest or weed control at 125 ppm was 60 to 100%. The pest or weed control at 125 µg/mL in experiment [2] and in experiment [3] was 60 to 100% throughout.
For the compound `Fc1ccc(C#CCCNc2ncnc3ccccc23)c(C(F)(F)F)c1` [compound 169], the pest or weed control at 125 ppm in experiment [1] is 60 to 100%. Besides, the pest or weed control at 125 µg/mL in experiment [2] and in experiment [3] was 60 to 100% throughout.
Take `N#Cc1cc(F)ccc1C#CCCNc1ncnc2ccccc12` [compound 170]: the pest or weed control at 125 ppm in experiment [1] was 60 to 100%. Also, the pest or weed control at 125 µg/mL in experiment [2] and in experiment [3] was 60 to 100% throughout.
As for `FC(F)(F)c1ccc(C#CCCNc2ncnc3ccccc23)cc1Cl` [compound 177], the pest or weed control at 125 ppm in experiment [1] fell in the range of 60 to 100%. For the same compound, the pest or weed control at 125 µg/mL in experiment [2] and in experiment [3] was 60 to 100% throughout.
